Like-named read-outs stand apart in the source and are kept apart here.
What was measured:
[1] = target: T1, Recombinant STAT6 protein (STAT6 (W123-T658)) (Homo sapiens, UniProt P42226); assay: STAT6 Fluorescence Polarization (FP) Assay; format: binding; settings: probe 5-FAM-Ap[…]-NH2 2 nM, 45-minute incubation
T1 construct: Recombinant STAT6 protein (STAT6 (W123-T658))
T1 sequence (P42226 123-658): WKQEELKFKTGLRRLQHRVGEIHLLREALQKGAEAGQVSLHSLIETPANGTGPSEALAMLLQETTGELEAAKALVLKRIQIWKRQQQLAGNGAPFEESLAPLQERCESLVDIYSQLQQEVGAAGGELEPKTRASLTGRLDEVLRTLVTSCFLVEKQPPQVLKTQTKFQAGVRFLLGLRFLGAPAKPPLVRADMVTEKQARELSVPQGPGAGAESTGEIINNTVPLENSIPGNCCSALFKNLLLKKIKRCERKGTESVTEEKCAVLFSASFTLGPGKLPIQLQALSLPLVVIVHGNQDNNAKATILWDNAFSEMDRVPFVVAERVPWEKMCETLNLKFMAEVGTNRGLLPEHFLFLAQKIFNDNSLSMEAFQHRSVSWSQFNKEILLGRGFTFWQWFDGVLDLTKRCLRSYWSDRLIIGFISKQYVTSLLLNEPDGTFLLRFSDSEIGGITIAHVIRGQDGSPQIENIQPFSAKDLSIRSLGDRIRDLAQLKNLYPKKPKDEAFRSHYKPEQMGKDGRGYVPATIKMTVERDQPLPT
Protocol: STAT6 Fluorescence Polarization (FP) Assay
An FP assay was developed to determine IC50 values for test substances. Recombinant STAT6 protein (STAT6 (W123-T658)) at 250 nM was combined with a fluorescently labeled, phosphotyrosine peptide probe (5-FAM-Ap[…]-NH2) at 2 nM in FP buffer (10 mM HEPES pH 7.4, 50 mM NaCl, 1 mM EDTA, 0.05% Tween 20, 2 mM DTT). 50 μL of STAT6-probe mixture was added to serial diluted compounds in black, 96-well plates (Greiner BioOne 655076) to a final concentration of 1% DMSO. Reaction components were mixed, and FP was measured after 45-minute incubation at room temperature using a Tecan Spark multimode plate reader. FP signal (mP) was plotted against the log concentration of the test substances and IC50 values were calculated by nonlinear regression analysis using GraphPad Prism software. For STAT6 FP assay, A=≤300 nM; B=>300-3000 nM; C=>3-30 μM; and D=>30 μM.

[2] = target: T2, Recombinant STAT3 protein (STAT3 (G127-I722)) (Homo sapiens, UniProt P40763); assay: STAT3 Fluorescence Polarization (FP) Assay; format: binding; settings: probe 5-FAM-GpYLPQTV-NH2 2 nM, 45-minute incubation
T2 construct: Recombinant STAT3 protein (STAT3 (G127-I722))
T2 sequence (P40763 127-722): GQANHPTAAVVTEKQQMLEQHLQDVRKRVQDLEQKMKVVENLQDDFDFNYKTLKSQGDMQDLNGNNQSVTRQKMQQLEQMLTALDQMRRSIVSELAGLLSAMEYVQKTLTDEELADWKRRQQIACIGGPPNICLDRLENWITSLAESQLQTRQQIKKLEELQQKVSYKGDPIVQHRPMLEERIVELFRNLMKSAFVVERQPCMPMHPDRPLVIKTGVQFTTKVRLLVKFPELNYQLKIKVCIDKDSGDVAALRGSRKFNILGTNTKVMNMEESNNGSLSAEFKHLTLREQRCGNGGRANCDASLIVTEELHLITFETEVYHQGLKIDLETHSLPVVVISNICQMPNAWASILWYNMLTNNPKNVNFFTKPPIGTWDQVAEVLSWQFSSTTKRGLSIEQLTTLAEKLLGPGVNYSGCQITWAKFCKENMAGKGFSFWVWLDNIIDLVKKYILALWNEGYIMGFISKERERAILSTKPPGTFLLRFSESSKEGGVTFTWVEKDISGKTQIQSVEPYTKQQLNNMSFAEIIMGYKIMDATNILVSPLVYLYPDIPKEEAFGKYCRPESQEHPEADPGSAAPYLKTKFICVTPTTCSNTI
Protocol: STAT3 Fluorescence Polarization (FP) Assay
An FP assay was developed to determine IC50 values for test substances. Recombinant STAT3 protein (STAT3 (G127-I722)) at 25 nM was combined with a fluorescently labeled, phosphotyrosine peptide probe (5-FAM-GpYLPQTV-NH2) at 2 nM in FP buffer (10 mM HEPES pH 7.4, 50 mM NaCl, 1 mM EDTA, 0.05% Tween 20.2 mM DTT). 50 μL of STAT3-probe mixture was added to serial diluted compounds in black, 96-well plates (Greiner BioOne 655076) to a final concentration of 1% DMSO. Reaction components were mixed, and FP was measured after 45-minute incubation at room temperature using a Tecan Spark multimode plate reader. FP signal (mP) was plotted against the log concentration of the test substances and IC50 values were calculated by nonlinear regression analysis using GraphPad Prism software. For STAT3 FP assay, A=≤100 nM; B=>100-1000 nM; C=>1-10 μM; and D=>10 μM.

[3] = STAT6 250 nM, read-out: STAT6 (FP assay IC50)
[4] = STAT3 25 nM, read-out: STAT3 (FP assay IC50)
[5] = STAT6 (W123-T658) 250 nM, read-out: STAT6 (FP assay IC50 class)
[6] = STAT3 (G127-I722) 25 nM, read-out: STAT3 (FP assay IC50 class)

Structure (SMILES)	IC50 [1, 3]	IC50 [2, 4]	IC50 [1, 5]	IC50 [2, 6]
N#C[C@H]1CN(C(=O)[C@@H]2CC[C@@H]3CC[C@@H](N4CCC4)C[C@H](NC(=O)c4cc5cc(C(F)(F)P(=O)(O)O)ccc5s4)C(=O)N32)C[C@@H]1c1ccccc1 (mixture of isomers) [Compound 23, ((2-(((3S,6S,8R,10aS)-8-(azetidin-1-yl)-3-(rel- trans)-3-cyano-4-phenylpyrrolidine-1-carbonyl)-5-oxodecahydropyrrolo [1,2-a]azocin-6-yl)carbamoyl)benzo[b]thiophen-5-yl)difluoromethyl) phosphonic acid]	300 to 3000 nM	1000 to 10000 nM		
N#C[C@H]1CN(C(=O)[C@@H]2CC[C@@H]3CCCC[C@H](NC(=O)c4ccc5ccc(C(F)(F)P(=O)(O)O)cc5c4)C(=O)N32)C[C@@H]1c1ccccc1 (mixture of isomers) [Compound 28, ((7-(((3S,6S,10aS)-3-(rel- trans)-3-cyano-4-phenylpyrrolidine-1-carbonyl)-5-oxodecahydropyrrolo [1,2-a]azocin-6-yl)carbamoyl)naphthalen-2-yl) difluoromethyl) phosphonic acid]	≤ 300 nM	1000 to 10000 nM		
N#C[C@@H]1CN(C(=O)[C@@H]2CC[C@@H]3CCCCC[C@H](NC(=O)c4cc5cc(C(F)(F)P(=O)(O)O)ccc5s4)C(=O)N32)C[C@H]1c1ccccc1 (mixture of isomers) [Compound 74, ((2-(((3S,6S,11aS)-3-((rel- trans)-3-cyano-4-phenylpyrrolidine-1-carbonyl)-5-oxodecahydro-1H-pyrrolo[1,2-a]azonin-6-yl)carbamoyl)benzo[b]thiophen-5-yl)difluoromethyl) phosphonic acid]	≤ 300 nM	1000 to 10000 nM		
N#CC1CN(C(=O)[C@@H]2C[C@@H](O)[C@@H]3C/C=C\C[C@H](NC(=O)c4cc5cc(C(F)(F)P(=O)(O)O)ccc5s4)C(=O)N23)CC1c1ccccc1 (mixture of isomers) [Compound 729, ((2-(((1R,3S,6S,10aS,Z)-3-((rel-trans)-3-cyano-4-phenylpyrrolidine-1-carbonyl)-1-hydroxy-5-oxo-1,2,3,5,6,7,10,10a-octahydropyrrolo[1,2-a]azocin-6-yl)carbamoyl)benzo [b]thiophen-5-yl)difluoromethyl) phosphonic acid]			≤ 300 nM	100 to 1000 nM
O=C(NC1CCCCC2CCC(C(=O)N3CC(O)C(n4ccnn4)C3)N2C1=O)c1ccc2ccc(C(F)(F)P(=O)(O)O)cc2c1 (mixture of isomers) [Compound 871, (difluoro(7-(((3S,6S,10aS)-3-((rel-trans)-3-hydroxy-4-(1H-1,2,3-triazol-1-yl)pyrrolidine-1-carbonyl)-5-oxodecahydropyrrolo[1,2-a]azocin-6-yl)carbamoyl)naphthalen-2-yl)methyl) phosphonic acid]			300 to 3000 nM	1000 to 10000 nM
N#C[C@@H]1CN(C(=O)[C@@H]2CCC[C@@H]3CCCC[C@H](NC(=O)c4cc5cc(C(F)(F)P(=O)(O)O)ccc5s4)C(=O)N32)CC1c1ccccc1 (mixture of isomers) [Compound 63, ((2-(((4S,7S,11aS)-4-(rel-(trans)-3-cyano-4-phenylpyrrolidine-1-carbonyl)-6-oxodecahydro-2H-pyrido[1,2-a]azocin-7-yl)carbamoyl)benzo[b]thiophen-5-yl)difluoromethyl) phosphonic acid]	≤ 300 nM	100 to 1000 nM		
N#C[C@H]1CN(C(=O)[C@@H]2CC[C@@H]3CCCC[C@H](NC(=O)c4cc5cc(C(F)(F)P(=O)(O)O)ccc5s4)C(=O)N32)C[C@@H]1CC1CCOCC1 (racemic) [Compound 88, ((2-(((3S,6S,10aS)-3-(rel-(trans)-3-cyano-4-((tetrahydro-2H-pyran-4-yl)methyl)pyrrolidine-1-carbonyl)-5-oxodecahydropyrrolo [1,2-a]azocin-6-yl)carbamoyl)benzo[b]thiophen-5-yl)difluoromethyl) phosphonic acid]	300 to 3000 nM	1000 to 10000 nM		
N#C[C@H]1CN(C(=O)[C@@H]2CC[C@@H]3CCCC[C@H](NC(=O)c4cc5cc(C(F)(F)P(=O)(O)O)ccc5s4)C(=O)N32)C[C@@H]1C1CCCCC1 (racemic) [Compound 91, ((2-(((3S,6S,10aS)-3-(rel-(trans)-3-cyano-4-cyclohexyl-pyrrolidine-1-carbonyl)-5-oxodecahydropyrrolo [1,2-a]azocin-6-yl)carbamoyl)benzo[b]thiophen-5-yl)difluoromethyl) phosphonic acid]	≤ 300 nM	1000 to 10000 nM		
N#C[C@@H]1CN(C(=O)[C@@H]2CC[C@@H]3C[C@@H](N4CCC4)CC[C@H](NC(=O)c4cc5cc(C(F)(F)P(=O)(O)O)ccc5s4)C(=O)N32)C[C@H]1c1ccccc1 (relative stereo) [Compound 21, ((2-(((3S,6S,9S,10aR)-9-(azetidin-1-yl)-3-(rel-(trans)-3-cyano-4-phenylpyrrolidine-1-carbonyl)-5-oxodecahydropyrrolo [1,2-a]azocin-6-yl)carbamoyl)benzo[b]thiophen-5-yl)difluoromethyl) phosphonic acid]	≤ 300 nM	1000 to 10000 nM		

Next, values leading:

IC50 [1, 3]	IC50 [2, 4]	IC50 [1, 5]	IC50 [2, 6]	Structure (SMILES)
		300 to 3000 nM	1000 to 10000 nM	COc1cc(C2CN(C(=O)C3CCC4CCCCC(NC(=O)c5cc6cc(C(F)(F)P(=O)(O)O)ccc6s5)C(=O)N43)CC2C#N)cc(C)n1 (mixture of isomers) [Compound 874, ((2-(((3S,6S,10aS)-3-((rel-trans)-3-cyano-4-(2-methoxy-6-methylpyridin-4-yl)pyrrolidine-1-carbonyl)-5-oxodecahydropyrrolo[1,2-a]azocin-6-yl)carbamoyl)benzo [b]thiophen-5-yl)difluoromethyl) phosphonic acid]
≤ 300 nM	1000 to 10000 nM			N#C[C@H]1CN(C(=O)[C@@H]2CC[C@@H]3CCCCC[C@H](NC(=O)c4cc5cc(C(F)(F)P(=O)(O)O)ccc5s4)C(=O)N32)C[C@@H]1c1ccccc1 (racemic) [Compound 75, ((2-(((3S,6S,11aS)-3-(rel-(trans)-3-cyano-4-phenylpyrrolidine-1-carbonyl)-5-oxodecahydro-1H-pyrrolo[1,2-a]azonin-6-yl)carbamoyl)benzo[b]thiophen-5-yl)difluoromethyl) phosphonic acid]
300 to 3000 nM	100 to 1000 nM			N#C[C@H]1CN(C(=O)[C@@H]2CC[C@@H]3CCCC[C@H](NC(=O)c4cc5cc(C(F)(F)P(=O)(O)O)ccc5s4)C(=O)N32)C[C@@H]1c1ccc2cn[nH]c2c1 (racemic) [Compound 99, ((2-(((3S,6S,10aS)-3-(rel-(trans)-3-cyano-4-(1H-indazol-6-yl)pyrrolidine-1-carbonyl)-5-oxodecahydropyrrolo [1,2-a]azocin-6-yl)carbamoyl)benzo[b]thiophen-5-yl)difluoromethyl) phosphonic acid]
≤ 300 nM	100 to 1000 nM			COc1cccc([C@H]2CN(C(=O)[C@@H]3CC[C@@H]4CCCC[C@H](NC(=O)c5cc6cc(C(F)(F)P(=O)(O)O)ccc6s5)C(=O)N43)C[C@@H]2C#N)n1 (racemic) [Compound 105, ((2-(((3S,6S,10aS)-3-(rel-(trans) 3-cyano-4-(6-methoxypyridin-2-yl)pyrrolidine-1-carbonyl)-5-oxodecahydropyrrolo [1,2-a]azocin-6-yl)carbamoyl)benzo[b]thiophen-5-yl)difluoromethyl) phosphonic acid]

Reference: US20250215029A1 (Recludix Pharma, Inc., priority 2022, published 2025)
